Laboratory results as given in patent US12213959B2, “Use of 3-O-sulfamoyloxy-7β-methyl-d-homo-6-oxaestra-1,3,5(10),8(9)-tetraen-17a-one to treat breast cancer” (priority 2018, dated 2025).
Several values for one entry are separate records, joined by “and”; a condition that tells them apart may be missing. Equal entries are not always repeated.

Assays:
[1] = Body weight and tolerability during the antitumour study
Experimental: The study medicament was administered i.g. using a metal atraumatic gavage (with the procedure corresponds to the oral route of administration in clinical settings). […] Ex tempore solutions of the medicament for administration were prepared in olive oil (refined olive oil supplemented with unrefined extra virgin olive oil available under Global Village “Clasico” trademark, lot L:183351116, expiry date 26.04.2020, BAIEO, Spain). The administered volume was 0.1 ml per 10 g of a mouse body weight (0.2 ml of a ready-to-use formulation for a mouse of 20 g). The medicament administration was started 24 hours after the randomization. Duration of the administration course was 27-28 days.
This dose corresponds to a human daily dose of 20 mg/kg.
The evaluation criteria included the clinical observation data, animals body weights, time of death (if applicable), tumor growth over time, pathomorphological examination data (verification of a neoplasm during autopsy, assessment of toxic effects by macroscopic presentation of changes in the internal organs).
The animals body weights were recorded before the first administration of the medicaments and then twice per week using a verified high-speed electronic laboratory balance Ohaus Scout Pro (USA) with a maximum load of 2000 g and a measurement pitch of 0.1 g.

[2] = Acute oral toxicity, OECD 423 test; type: in vivo; details: for Body weight of individual mice: in g (unit assumed)
Experimental: 12 female mice were used in the experiment.
The dosage form for the administration was prepared ex tempore.
No deaths were detected either.
Further the observations were made once per day.
The medicament was administered in 2 steps with a break of 3 hours in a volume of 0.1 ml per 10 g of a body weight per step at the concentration of […], because the suspension in oil is thicker at higher concentrations and precludes the medicament to be administered through a gavage. […] Regardless of the group the width of the palpebral fissure of the animals was almost unchanged during the entire observation period. No pathological discharges from the eyes were detected. The nose was pink, moderately moist without pathological discharges. The fur of all mice was neat and shiny without bald spots. A 1% decrease of the animals body weight was registered on Day 2 and a 6% weight decrease on Day 7 from the initial weight (Table 3).

[3] = test system: MDA-MB-231 cell line of triple negative breast cancer; experiment: Cell growth inhibition on MDA-MB-231; type: cell-based; details: Homo sapiens
[4] = test system: Normal human dermal fibroblasts (HDF); experiment: Proliferative activity of normal human skin fibroblasts (negative control); type: cell-based; details: 20 μg/ml
Experimental: (§1) The study analysis was carried out on an passaged MCF-7 human cells culture culture (breast adenocarcinoma). Normal human dermal fibroblasts (HDF) of early passages were used as a negative control.
(§2) The cells were cultivated in Carrel vials in DMEM/F12 medium (Biolot) with 1.0% of antibiotic-free fetal bovine embryonic serum (Biolot) added in the 5% CO2 atmosphere, at 37° C.
(§3) The cells were seeded on Carrel vials at 50×10^4 cells per flask. To study the proliferative activity of the cells under conditions of sulfatase inhibition, 24 hours after seeding the culture medium […], and then these tumor cell lines were incubated for various periods of time (24 to 72 hrs). The inhibitor was dissolved in DMSO. […] To exclude the cytotoxic effect of DMSO, a control sample comprising DMSO without sulfatase inhibitor was prepared.
(§4) To exclude nonspecific detrimental effects of the compounds, normal human skin fibroblasts were used. Then the cells were detached with the versene-trypsin solution (Biolot), plated onto Carrel vials containing a fresh complete culture medium. The cells were counted when untreated control cells reached the maximum cell density per unit of surface area of a culture flask (monolayer), and their number was set as 100%. The proliferative activity of all of the studied cell cultures exposed to sulfatase inhibitors was determined in triplicate.

uterine body = experiment: Hormonal effects on the uterine body (uterine weight); type: in vivo, mice; details: for Uterine weight: end of observation
Experimental: The hormonal effects of the medicament on the uterine body was analyzed by comparing the uterine weight without uterine horns at the end of the observation period (Table 13).

[5] = test system: inoculated human tumour of triple-negative breast cancer; experiment: Animal models with inoculated human triple-negative breast cancer tumour; details: in vivo
[6] = test system: MCF-7 human cells culture (breast adenocarcinoma); experiment: Proliferative activity of MCF-7 cells; type: cell-based; details: 20 μg/ml
Experimental: as §1, §2, §3, §4

[7] = 300 mg/kg, Day 1 (before administration)
[8] = 2000 mg/kg, Day 1 (before administration)

C[C@H]1Oc2cc(OS(N)(=O)=O)ccc2C2=C1[C@@H]1CCCC(=O)[C@@]1(C)CC2 [medicament, 3-O-sulfamoyloxy-7β-methyl-O-homo-6-oxaestra-1,3,5(10),8(9)-tetraen]
signs of toxic damage to the internal organs at autopsy ([1]; end of the experiment): no specific signs of toxic damage to the internal organs | clinical signs of toxicity ([1]; mouse, in vivo): no clinical signs of toxicity being observed | visual signs of intoxication ([2]; 300 mg/kg i.g., entire observation period): None of the animals exhibited visual signs of intoxication | Average body weight [2, 7]: 27.4 g | Body weight of individual mice [2, 7]: 26.4 and 29.6 and 26.0 and 27.0 and 28.0 and 27.5 | Average body weight ([2]; 300 mg/kg, Day 2): 27.1 g | Average body weight, % from baseline ([2]; 300 mg/kg, Day 2): −1% | average body weight decrease ([2]; 300 mg/kg, Day 2): 1% | Body weight of individual mice ([2]; 300 mg/kg, Day 2): 26.8 and 24.2 and 26.5 and 25.2 and 27.3 and 27.6 | Average body weight ([2]; 300 mg/kg, Day 7): 27.6 g | Average body weight, % from baseline ([2]; 300 mg/kg, Day 7): 1% | Body weight of individual mice ([2]; 300 mg/kg, Day 7): 27.0 and 29.4 and 27.4 and 25.6 and 28.2 and 28.0 | Average body weight ([2]; 300 mg/kg, Day 14): 28.1 g | Average body weight, % from baseline ([2]; 300 mg/kg, Day 14): 2% | Body weight of individual mice ([2]; 300 mg/kg, Day 14): 27.0 and 29.8 and 29.3 and 26.0 and 27.9 and 28.4 | clinical signs of intoxication ([2]; 2000 mg/kg i.g.): No clinical signs of intoxication were observed | Average body weight [2, 8]: 26.2 g | Body weight of individual mice [2, 8]: 28.4 and 25.0 and 26.6 and 24.0 and 26.7 and 26.4 | Average body weight ([2]; 2000 mg/kg, Day 2): 26.1 g | Average body weight, % from baseline ([2]; 2000 mg/kg, Day 2): −1% | decrease of body weight from the initial weight ([2]; 2000 mg/kg, Day 2): 1% | Body weight of individual mice ([2]; 2000 mg/kg, Day 2): 27.9 and 25.5 and 26.5 and 25.2 and 27.3 and 27.0 | Average body weight ([2]; 2000 mg/kg, Day 7): 24.7 g | Average body weight, % from baseline ([2]; 2000 mg/kg, Day 7): −6% | decrease of body weight from the initial weight ([2]; 2000 mg/kg, Day 7): 6% | Body weight of individual mice ([2]; 2000 mg/kg, Day 7): 24.7 and 24.5 and 25.1 and 25.6 and 28.2 and 25.7 | Average body weight ([2]; 2000 mg/kg, Day 14): 26.3 g | Body weight of individual mice ([2]; 2000 mg/kg, Day 14): 28.3 and 24.9 and 26.4 and 26.0 and 27.9 and 27.0 | macroscopic changes of internal organs at autopsy ([2]; Day 15): no changes of the internal organs were detected | hazard category ([2]; OECD 423): 5th or unclassified category and 5th or non-classified category | hazard category ([2]; OECD 423, listed as anti-cancer agent): 5th hazard category | LD50 at 14 days ([2]; female, FVB transgenic for HER-2/neu, mouse, in vivo, po, oral (i.g.), mice, OECD 423): ≥ 5000 mg/kg | LD50 ([2]; oral (i.g.), mice, OECD 423, listed as anti-cancer agent): > 5000 mg/kg | IC50 [3]: 4.8 µM | growth of human skin fibroblasts [4]: does not influence the growth | uterine weight differences as compared to the control group (uterine body; dose range from 2.0 to 100 mg/kg): No statistically significant differences | Uterine weight (uterine body; medicament 2 mg/kg, All mice): 37 ± 6 MI | Uterine weight (uterine body; medicament 2 mg/kg, estrous cycle phase D): 24 ± 7 MI | Uterine weight (uterine body; medicament 2 mg/kg, estrous cycle phase E): 53 ± 3 MI | Uterine weight (uterine body; medicament 20 mg/kg, All mice): 50 ± 4 MI | Uterine weight (uterine body; medicament 20 mg/kg, estrous cycle phase D): 45 ± 13 MI | Uterine weight (uterine body; medicament 20 mg/kg, estrous cycle phase E): 53 ± 4 MI | Uterine weight (uterine body; medicament 100 mg/kg, All mice): 52 ± 5 MI | Uterine weight (uterine body; medicament 100 mg/kg, estrous cycle phase D): 34 ± 13 MI | Uterine weight (uterine body; medicament 100 mg/kg, estrous cycle phase E): 56 ± 5 MI | uterotropic activity (uterine body; mouse, in vivo): no uterotropic activity | action compared with Tamoxifen and Letrozole [5]: better action than that of the clinically used Tamoxifen and an aromatase inhibitor Letrozole | proliferation of MCF-7 tumour cells [6]: completely blocks
